The results in this text go back to article PMC13576449, “Small-Molecule Activators of PRMT1: Discovery, SAR Analyses, and Proapoptotic Effects in Pancreatic Cancer Cells” (Journal of Medicinal Chemistry, 2026).

In one assay the test system is PANC-1 cells. The experiment in a line: CaspaseGlo 3/7 apoptosis assay, PANC-1. The format is cell-based, human. To be noted: 72 h. On the procedure:
(§1) 6 Effect of small-molecule modulators on gemcitabine-induced apoptosis and tumor growth of PDAC cells. […] After 2 h, gemcitabine (GEM) was added at increasing concentrations (10 and 25 nM) or not (−) for another incubation of 72 h. Subsequently, the luminescence-based caspase3/7 assay was performed. The activity of caspase 3/7 in treated cells was normalized to the activity measured in untreated cells (dark gray bar), which was set to 1 (mean SD, n = 6 for PANC-1 and n = 4 for PaTu8988T; *: p ≤ 0.05, **: p ≤ 0.01, ***: p ≤ 0.001, using the student t-test). […] After 24 h, gemcitabine (GEM, 1 μM) was added (+) or not (−) for another incubation of 48 h. Subsequently, the apoptotic cell fraction was quantified in % by flow cytometry using FITC-labeled Annexin V (AV) and propidium iodide (PI) staining (in B: mean ± SD, n = 6 for PANC-1 and n = 5 for PaTu8988T; **: p ≤ 0.01, ***: p ≤ 0.001, ****: p ≤ 0.0001, using the student t-test). […] Viable cells are AV/PI double-negative (AV–/PI–, lower left quadrant, Q4), early apoptotic cells are AV single-positive (AV+/PI– upper left quadrant, Q1), late apoptotic cells are AV/PI double-positive (AV+/PI+, upper right quadrant, Q2), and necrotic cells are PI single-positive (AV–/PI+, lower right quadrant, Q3). The sum of early and late apoptotic cell numbers ([…] in %) is indicated in red. D-G: The workflow of the PDAC xenograft experiments in mice is depicted in D. PANC-1 cells (2 × 10^6 cells/mouse) were subcutaneously (s.c.) injected in the right flank of female athymic nude mice. Small tumor nodules appeared 6 days post-engraftment. […] Tumor volumes were measured every second day using a digital caliper. […] At the end of the 2 weeks, mice were sacrificed and tumors were dissected (F).
(§2) For quantification of apoptosis using the CaspaseGlo 3/7 assay (Promega), PANC-1 and PaTu8988T cells were seeded in triplicates in white 96-well plate (5 × 10^3 cells/well) and cultured in the absence or presence of compounds. After 2 h, as soon as the cells had settled, gemcitabine was added or not, and cells were incubated for another 72 h. Subsequently, the caspase3/7 activity was measured using the luminescence-based CaspaseGLO-3/7 assay (Promega). To this end, the CaspaseGlo reagent was subsequently added to the cells at a 1:1 ratio and incubated at room temperature and under agitation for 30 min protected from light. The luminescence measurements were carried out using a microplate reader (Mithras LB 940, Berthold).

A further assay relates to PaTu8988T cells. The experiment in a line: CaspaseGlo 3/7 apoptosis assay, PaTu8988T. The assay is classed as cell-based, human. To be noted: 72 h. How it is done:
as §1, §2

Where [1] appears, read: TR-07 10 μM or gemcitabine 10 and 25 nM.
The mark [2] stands for this setting: compound 10 μM, after 2 h gemcitabine 10 and 25 nM.

On to `CN(C)Cc1cccc(CN/C=C2\C(=O)NC(=O)c3ccccc32)c1.Cl` [TR-07, (Z)-1-[3-({[(1,3-Dioxo-2,3-dihydroisoquinolin-4(1H)-lidene)methyl]amino}methyl)phenyl]-N,N-dimethylmethanaminium chloride], for which the “apoptosis, caspase 3/7 activity, single agent” value in the assay on PANC-1 cells (setting [1]) and in the assay with PaTu8988T cells (setting [1]) was “did not significantly induce apoptosis” in each case. Further, the “gemcitabine-induced apoptosis, caspase 3/7 activity, co-treatment” value with PANC-1 cells (setting [2]) and in the assay on PaTu8988T cells (setting [2]) was “further significantly enhanced” in each case.
